Measured values taken from patent publication US20090297510A1, “INHIBITION OF CALPAIN REDUCES ALLERGIC INFLAMMATION” (priority 2008, published 2009).

Experiments:
Balb/c mice = test: FcεRI-mediated passive cutaneous anaphylaxis, Evans blue dye extravasation in ear; assay type: in vivo; details: 0.965 mg/mouse intraperitoneal, 1 h before DNP-BSA challenge i.v.; ears collected 30 min later; control DMSO; FIG. 2
Experimental: In particular, mice were injected locally in the ear tissue with anti-dinitrophenol (DNP) IgE (20 ng/mouse) a day before. Mice in the treatment group received 0.965 mg/mouse of calpain inhibitor III via intraperitoneal injection. Control group received diluent dimethyl sulfoxide (DMSO) only. One hour later, animals were injected with 100 μg of DNP-BSA in 200 μl 0.5% Evan blue dye via tail vein injection. Thirty minutes later, ear tissues were collected. Evan blue dyes were extracted and measure at 620 nm.
To examine the role of calpain in FcεRI-mediated passive cutaneous anaphylaxis in mice, dorsal sides of the ears of Balb/c mice were injected intradermally with 20 ng anti-DNP IgE (both left ears) in a 20 μl volume using a 30-gauge needle. After 24 h mice in the treatment group received 0.965 mg/mouse of calpain inhibitor III via intraperitoneal injection. Control group received diluent dimethyl sulfoxide (DMSO) only. […] For quantitation of Evans blue dye extravasation as a measure of anaphylaxis associated vascular hyperpermeability, 8-mm skin specimens were removed from the ears of mice, minced in 2 ml formamide, and incubated at 80° C. for 2 h in water bath to extract the dye. The absorbance of the extracted dye was read at 620 nm.

[1] = tested on: JNK phosphorylation in mast cells; test: Western blot of IgE-dependent kinase phosphorylation in mast cell lysates; assay type: cell-based, mouse; details: BMMC, inhibitor or DMSO 1 hour, then TNP-BSA 10 ng/ml for various times, FIG. 4
Experimental: In particular, mouse bone marrow-derived mast cells (60 million) were sensitized overnight with 90 ml fresh culture medium and 30 ml TIB141-conditioned medium enriched in IgE directed against trinitrophenyl (TNP). Cells were then washed twice with RPMI 1640 and resuspended in 10% FBS-RPMI 1640 at 1 million cells/ml. Five ml of cells were aliquoted for each treatment. Calpain inhibitor 3 (CI3) or DMSO was added and to the sample and incubated at 37° C. in a 5% CO2 incubator for 1 hour. Then, TNP-BSA (10 ng/ml) was added to stimulate mast cells for various times as indicated. After incubation, cells were transferred to a 50 ml tube, and centrifuged at 500×g for 5 min at 4° C. Supernatants were discarded and cell pellets were kept on ice. Cell pellets were lysed with 30 μl ice-cold RIPA lysis buffer for each condition. Lysates were transferred to 1.5 ml tubes, vortexed for 10 seconds at the highest setting, pipetted 20 times, vortexed for 10 seconds again, and incubated for 20 minutes on ice. Subsequently, lysates were centrifuged at 15,000×g for 10 minutes in a cold room. Supernatants were then transferred to new tubes and used for Western blotting with antibodies to phospho-IκB, total IκB, phospho-p38, total p38, phospho-JNK, total JNK, phospho-ERK, total ERK and actin. […]

Substance: calpain inhibitor III
- IgE-dependent passive cutaneous anaphylaxis (Evans blue dye extravasation, absorbance at 620 nm) (Balb/c mice): reduced IgE-dependent passive cutaneous anaphylaxis
- IgE-dependent JNK phosphorylation in mast cells [1]: reduced IgE-dependent JNK phosphorylation in mast cells
